Assay results: patent publication US7598244B2, “[1,2,4]triazolo[1,5,a]pyrimidin-2-ylurea derivative and use thereof” (Nippon Kayaku Kabushiki Kaisha, priority 2003, dated 2009)

These compounds were tested on MHC class I molecules of T1 cells (human lymphoma cell line 174×CEM.) (assay: Effect on expression of MHC class I from T1 cells (flow cytometry, MFI)). Details: 3 days culture.
Format: cell-based
Description: Effect on Expression of MHC Class I from T1 Cells (Human Lymphoma Cell Line 174×CEM.)
Using a 96-well flat bottom microplate, T1 cells (5.7×10^3 cells/200 μl/well) were cultured in an RPMI 1640 medium (Iwaki Glass) containing 10% fetal bovine serum (hereinafter abbreviated as FBS; Iruvine Scientific) in an incubator containing 5% carbon dioxide at 37° C. for 3 days, in the presence of a test compound having each concentration obtained by dilution at a common ratio route of 10 from 400 μM. After completion of the culture, the cells were stained with fluoroisothiocyanate-labeled mouse anti-human MHC class I monoclonal antibody (an antibody produced from the cell line W6/32 (ATCC No. CRL 1991)). The mean fluorescence intensity of the stained cells (hereinafter referred to as MFI) was measured using flow cytometry FACScan (BD). The obtained value was defined as an expression level of MHC class I molecules. A test compound concentration necessary for suppressing 20% of the expression level of MHC class I molecules (EC20 value) was calculated using the following formula (1).
[formula] • Eexp: MFI of cultured cells containing test compound after being stained with antibody • Cexp: MFI of cultured cells containing no test compounds after being stained with antibody

SMILES	EC20 (concentration necessary for suppressing 20% of the expression level of MHC class I molecules) [µM]
CC[C@H](NC(=O)Nc1nc2nccc(-c3ccc(OC)cc3)n2n1)c1ccccc1 [Example 130]	0.13
CC(COCC1CCOCC1)NC(=O)Nc1nc2nccc(-c3ccc4c(c3)OCO4)n2n1 (stereo not drawn) [Example 335]	0.26
CC(C)CCC[C@H](C)NC(=O)Nc1nc2nccc(-c3ccc(OCc4ccccc4)cc3)n2n1 [Example 245, (S)-1-[7-(4-benzyloxyphenyl)-[1,2,4]triazolo[1,5-a]pyrimidin-2-yl]-3-(1,5-dmethylhexyl)urea]	0.18
COc1ccc(-c2ccnc3nc(NC(=O)NCCN4CCOCC4)nn23)cc1 [Example 064]	0.67
O=C(Nc1nc2nccc(-c3cccc(Cl)c3)n2n1)NC1CCCCC1 [Example 016]	0.73
COc1ccc(-c2ccnc3nc(NC(=O)NCC4CCCCC4)nn23)cc1 [Example 099]	0.44
COc1cccc([C@H](C)NC(=O)Nc2nc3nccc(-c4ccc(OCc5ccccc5)cc4)n3n2)c1 [Example 222, (S)-1-[7-(4-benzyloxyphenyl)-[1,2,4]triazolo[1,5-a]pyrimidin-2-yl]-3-[1-(3-methoxyphenyl)ethyl]urea]	0.1
COc1ccc(-c2ccnc3nc(NC(=O)NCC(=O)OC(C)(C)C)nn23)cc1 [Example 110]	0.79
CC(C)NC(=O)Nc1nc2nccc(-c3cccc(OCc4ccccn4)c3)n2n1 [Example 185]	0.35
COc1ccc(-c2ccnc3nc(NC(=O)N[C@@H](C)C4CCCCC4)nn23)cc1 [Example 218]	0.18
CC(C)CCC[C@H](C)NC(=O)Nc1nc2nccc(-c3cccc(OCC4CCCO4)c3)n2n1 (stereo partly drawn) [Example 260]	0.06
CCCCNC(=O)[C@@H](NC(=O)Nc1nc2nccc(-c3ccc(OC)cc3)n2n1)C(C)C [Example 091]	0.21
COc1cccc([C@H](C)NC(=O)Nc2nc3nccc(-c4ccc(OCCCN5CCOCC5)cc4)n3n2)c1 [Example 248]	0.014
COCCOCCOCCOc1ccc(-c2ccnc3nc(NC(=O)N[C@@H](C)CCCC(C)C)nn23)cc1 [Example 263]	0.0079
O=C(Nc1ccc(O)cc1)Nc1nc2nccc(-c3cccs3)n2n1 [Example 023]	0.43
COc1ccc(-c2ccnc3nc(NC(=O)NC(C)CCC(C)C)nn23)cc1 (racemic) [Example 236]	0.08
COc1ccc(-c2ccnc3nc(NC(=O)NCCCc4ccccc4)nn23)cc1 [Example 102]	0.19
COc1cccc(-c2ccnc3nc(NC(=O)N[C@@H](C)CCCC(C)C)nn23)c1 [Example 188]	0.08
COc1cccc([C@H](C)NC(=O)Nc2nc3nccc(-c4cccc(OCCc5ccccn5)c4)n3n2)c1 [Example 208]	0.18
COc1ccc(-c2ccnc3nc(NC(=O)N[C@@H](C)C(C)C)nn23)cc1 [Example 216]	0.16
COc1ccc(-c2ccnc3nc(NC(=O)N[C@@H](C)c4ccc(OC)cc4)nn23)cc1 [Example 133]	0.19
COCC[C@H](C)NC(=O)Nc1nc2nccc(-c3cccs3)n2n1 [Example 332]	0.76
COc1cccc([C@H](C)NC(=O)Nc2nc3nccc(-c4ccc(OCCN5CCOCC5)cc4)n3n2)c1 [Example 269]	0.015
C[C@H](NC(=O)Nc1nc2nccc(-c3cccs3)n2n1)C(=O)OC(C)(C)C [Example 050]	0.33

SMILES	EC20 (concentration necessary for suppressing 20% of the expression level of MHC class I molecules) [µM]
COCCNC(=O)[C@@H](NC(=O)Nc1nc2nccc(-c3ccc(OC)cc3)n2n1)C(C)C [Example 096]	0.55
COc1ccc(-c2ccnc3nc(NC(=O)N[C@H](C(=O)N(C)Cc4ccccc4)C(C)C)nn23)cc1 [Example 093]	0.7
COc1cccc([C@H](C)NC(=O)Nc2nc3nccc(-c4ccc(OCCC5OCCCO5)cc4)n3n2)c1 [Example 225]	0.05
COc1ccc(-c2ccnc3nc(NC(=O)NCc4ccc5c(c4)OCO5)nn23)cc1 [Example 215]	0.15
COc1ccc(-c2ccnc3nc(NC(=O)NC(C)CCN(C)C(=O)C(C)(C)OC(C)=O)nn23)cc1 (stereo not drawn) [Example 298]	0.08
COc1cccc([C@H](C)NC(=O)Nc2nc3nccc(-c4cccs4)n3n2)c1 [Example 181]	0.43
CC(C)COc1cccc(-c2ccnc3nc(NC(=O)NC4CCCCC4)nn23)c1 [Example 108]	0.13
CCC(C)NC(=O)Nc1nc2nccc(-c3ccc(OC)cc3)n2n1 (stereo not drawn) [Example 100]	0.32
COc1cccc([C@H](C)NC(=O)Nc2nc3nccc(-c4cccc(OCC(=O)N5CCOCC5)c4)n3n2)c1 [Example 253]	0.27
COC(=O)C1CCC(NC(=O)Nc2nc3nccc(-c4ccc(OC)cc4)n3n2)CC1 (stereo not drawn) [Example 167]	0.2
COCCOc1ccc(-c2ccnc3nc(NC(=O)N[C@@H](C)c4cccc(OC)c4)nn23)cc1OCCOC [Example 251]	0.06
COCOc1ccc(-c2ccnc3nc(NC(=O)N[C@@H](C)c4cccc(OC)c4)nn23)cc1 [Example 226]	0.05
COc1cc(C(C)NC(=O)Nc2nc3nccc(-c4ccc5c(c4)OCO5)n3n2)cc(OC)c1OC (stereo not drawn) [Example 302, 1-[7-(3,4-methylenedioxyphenyl)-[1,2,4]triazolo[1,5-a]pyrimidin-2-yl]-3-[1-(3,4,5-trimethoxyphenyl)ethyl]urea]	0.18
CC(C)NC(=O)Nc1nc2nccc(-c3cccc(OCCc4ccccc4)c3)n2n1 [Example 180]	0.35
CC[C@H](C)NC(=O)Nc1nc2nccc(-c3ccc(OC)cc3)n2n1 [Example 234]	0.22
COc1ccc(-c2ccnc3nc(NC(=O)N[C@@H](C)c4ccc([N+](=O)[O-])cc4)nn23)cc1 [Example 139]	0.13
CC(CCCC(=O)N1CCOCC1)NC(=O)Nc1nc2nccc(-c3cccs3)n2n1 (stereo not drawn) [Example 287]	0.77
COc1ccc(-c2ccnc3nc(NC(=O)NC(C)CCCC(=O)N4CCOCC4)nn23)cc1 (stereo not drawn) [Example 275]	0.54
C[C@H](NC(=O)Nc1nc2nccc(-c3cccs3)n2n1)c1ccccc1 [Example 165]	0.3
COc1ccc(-c2ccnc3nc(NC(=O)N[C@H](C(=O)N4CCOCC4)C(C)C)nn23)cc1 [Example 070]	0.48
COc1cccc([C@H](C)NC(=O)Nc2nc3nccc(-c4ccc(OCC(=O)O)cc4)n3n2)c1 [Example 229]	0.69
COc1ccc(-c2ccnc3nc(NC(=O)N[C@@H](C)C(=O)N4CCOCC4)nn23)cc1 [Example 118]	0.61
CC(C)NC(=O)Nc1nc2nccc(-c3cccc(OCc4ccncc4)c3)n2n1 [Example 193]	0.31
COC(=O)[C@H](C)NC(=O)[C@@H](NC(=O)Nc1nc2nccc(-c3ccc(OC)cc3)n2n1)C(C)C [Example 098]	0.14
